From US7365174B2, “Azalide and azalactam derivatives and method for producing the same” (Meiji Seika Kaisha, Ltd., priority 2003, dated 2008)
Values after ≈ are worked out from the molar mass of the structure shown.

Assays:
Assay in all cases: Antibacterial activity test (agar dilution MIC)
Format in all cases: cell-based
[1] = tested on: Streptococcus pneumoniae TH-662; details: TH662; test bacterium D = Streptococcus pneumoniae TH-662; blood agar medium, 37° C., about 20 hours; read-out: Minimum inhibitory concentration (MIC)
Experimental: (§1) In vitro antibacterial activities of the compounds of Examples 13, 28, 35, 43, 53 to 55, 64, 70, 84, 90, 94, 95, 108, 128, and 129 were measured as follows by referring to the standard method of the Japanese Society of Chemotherapy (Chemotherapy, Vol. 29, pp. 76-79, 1981). The antibacterial activity of midecamycin (MDM) was similarly measured for comparison.
(§2) Using each solution of the test substance prepared in methanol at a concentration of […], 2-fold serial dilutions were prepared by using methanol. Each of the prepared solutions of the test substances was put into a petri dish in a volume of 200 μl, added with 10 ml of agar medium for sensitivity measurement added with 5% horse sterile defibrinated blood, 15 μg/ml of β-nicotinamide-adenine dinucleotide, and 2.5 μg/ml of Hemin, and mixed for dilution to prepare an agar plate containing a test substance. A predetermined volume of a liquid medium for sensitivity measurement, prepared so as to contain a given number of test bactera, was inoculated on the agar plate containing a test substance by using a micro planter (Sakuma Seisakusho), and after the inoculation, the bacteria were cultured at 37° C. for about 20 hours. After the culture, presence or absence of growth of the test bacteria on the plate was observed by visual inspection, and the minimum concentration at which growth was not observed was determined as the minimum inhibitory concentration (MIC) of the test sustance.

[2] = tested on: Haemophilus influenzae 9334; details: test bacterium G = Haemophilus influenzae 9334; blood agar medium, 37° C., about 20 hours; read-out: Minimum inhibitory concentration (MIC)
Experimental: as §1, §2

[3] = tested on: Streptococcus pneumoniae IP692; details: test bacterium C = Streptococcus pneumoniae IP692; blood agar medium, 37° C., about 20 hours; read-out: Minimum inhibitory concentration (MIC)
Experimental: as §1, §2

[4] = tested on: Moraxella catarrhalis W-0506; details: W0506; test bacterium F = Moraxella catarrhalis W-0506; blood agar medium, 37° C., about 20 hours; read-out: Minimum inhibitory concentration (MIC)
Experimental: as §1, §2

[5] = tested on: Staphylococcus aureus 209P JC-1; details: test bacterium A = Staphylococcus aureus 209P JC-1; blood agar medium, 37° C., about 20 hours; read-out: Minimum inhibitory concentration (MIC)
Experimental: as §1, §2

[6] = tested on: Streptococcus pyogenes Cook; details: test bacterium E = Streptococcus pyogenes Cook; blood agar medium, 37° C., about 20 hours; read-out: Minimum inhibitory concentration (MIC)
Experimental: as §1, §2

[7] = tested on: Streptococcus pneumoniae DP1 TypeI; details: DP1TYPEI; test bacterium B = Streptococcus pneumoniae DP1 TypeI; blood agar medium, 37° C., about 20 hours; read-out: Minimum inhibitory concentration (MIC)
Experimental: as §1, §2

Compound | MIC [1] [µg/mL] | MIC [2] [µg/mL] | MIC [3] [µg/mL] | MIC [4] [µg/mL] | MIC [5] [µg/mL] | MIC [6] [µg/mL] | MIC [7] [µg/mL]
CCC(=O)O[C@@H]1CC(=O)O[C@@H](C/C=C/c2ccc3ccccc3c2)CCCN(C)C[C@H](O)[C@H](C)C[C@H](CC=O)[C@H](O[C@@H]2OC(C)[C@@H](O[C@H]3CC(C)(OC(C)=O)[C@@H](OC(=O)CC)C(C)O3)C(N(C)C)C2O)[C@H]1OC (stereo partly shown) [Example 95] | 1 (≈ 0.973 µM) | 32 (≈ 31.2 µM) | 0.13 (≈ 0.127 µM) | 4 (≈ 3.89 µM) | 1 (≈ 0.973 µM) | 0.25 (≈ 0.243 µM) | 0.06 (≈ 0.0584 µM)
CCC(=O)O[C@@H]1CC(=O)O[C@H](C)CCCN(CCCCc2ccccc2)C[C@H](O)[C@H](C)C[C@H](CC=O)[C@H](O[C@@H]2OC(C)[C@@H](O[C@H]3CC(C)(OC(C)=O)[C@@H](OC(=O)CC)C(C)O3)C(N(C)C)C2O)[C@H]1OC (stereo partly shown) [Example 43] | 1 (≈ 1.01 µM) | 0.5 (≈ 0.503 µM) | 0.06 (≈ 0.0604 µM) | 0.5 (≈ 0.503 µM) | 0.25 (≈ 0.252 µM) | 0.13 (≈ 0.131 µM) | 0.06 (≈ 0.0604 µM)
CCCC(=O)O[C@H]1C(C)O[C@@H](O[C@@H]2C(C)O[C@@H](O[C@H]3[C@@H](CC=O)C[C@@H](C)[C@@H](O)CN(C)CCC[C@H](C/C=C/c4cnc5ccccc5c4)OC(=O)C[C@@H](O)[C@@H]3OC)C(O)C2N(C)C)CC1(C)OC(=O)CC (stereo partly shown) [Example 128] | 0.13 (≈ 0.13 µM) | 16 (≈ 16 µM) | 0.03 (≈ 0.03 µM) | 1 (≈ 1 µM) | 0.5 (≈ 0.5 µM) | 0.06 (≈ 0.06 µM) | 0.03 (≈ 0.03 µM)
CCCC(=O)O[C@H]1C(C)O[C@@H](O[C@@H]2C(C)O[C@@H](O[C@H]3[C@@H](CC=O)C[C@@H](C)[C@@H](O)CN(C)CCC[C@H](C/C=C/c4cncc5ccccc45)OC(=O)C[C@@H](O)[C@@H]3OC)C(O)C2N(C)C)CC1(C)OC(=O)CC (stereo partly shown) [Example 129] | 0.13 (≈ 0.13 µM) | 8 (≈ 8 µM) | 0.03 (≈ 0.03 µM) | 1 (≈ 1 µM) | 0.5 (≈ 0.5 µM) | 0.06 (≈ 0.06 µM) | 0.015 (≈ 0.015 µM)
CCC(=O)OC1C(C)O[C@@H](O[C@@H]2C(C)O[C@@H](O[C@H]3[C@@H](CC=O)C[C@@H](C)[C@@H](O)CN(C)CCC(CCCc4cnc5ccccc5c4)NC(=O)C[C@@H](OC(=O)CC)[C@@H]3OC)C(O)C2N(C)C)CC1(C)O (stereo partly shown) [Example 35] | 8 (≈ 8.22 µM) | 2 (≈ 2.06 µM) | 0.06 (≈ 0.0617 µM) | 4 (≈ 4.11 µM) | 1 (≈ 1.03 µM) | 0.25 (≈ 0.257 µM) | 0.03 (≈ 0.0308 µM)
CCC(=O)O[C@@H]1CC(=O)OCCC(/C=C/Cc2ccnc3ccccc23)CN(C)C[C@H](O)[C@H](C)C[C@H](CC=O)[C@H](O[C@@H]2OC(C)[C@@H](O[C@H]3CC(C)(O)[C@@H](OC(=O)CC)C(C)O3)C(N(C)C)C2O)[C@H]1OC (single isomer, unassigned) [Example 54] | 8 (≈ 8.11 µM) |  | 0.03 (≈ 0.0304 µM) | 1 (≈ 1.01 µM) | 0.13 (≈ 0.132 µM) | 0.03 (≈ 0.0304 µM) | 0.015 (≈ 0.0152 µM)
CCC(=O)O[C@@H]1CC(=O)NCCCCN(CCCCc2ccccc2)C[C@H](O)[C@H](C)C[C@H](CC=O)[C@H](O[C@@H]2OC(C)[C@@H](O[C@H]3CC(C)(OC(C)=O)[C@@H](OC(=O)CC)C(C)O3)C(N(C)C)C2O)[C@H]1OC (stereo partly shown) [Example 64] | 8 (≈ 8.18 µM) | 1 (≈ 1.02 µM) | 0.25 (≈ 0.256 µM) | 0.25 (≈ 0.256 µM) | 0.25 (≈ 0.256 µM) | 0.06 (≈ 0.0613 µM) | 0.13 (≈ 0.133 µM)
CCC(=O)OC1C(C)O[C@@H](O[C@@H]2C(C)O[C@@H](O[C@H]3[C@@H](CC=O)C[C@@H](C)[C@@H](O)CN(C)CCC(/C=C/Cc4ccnc5ccccc45)NC(=O)C[C@@H](OC(=O)CC)[C@@H]3OC)C(O)C2N(C)C)CC1(C)O (stereo partly shown) [Example 28] | 8 (≈ 8.24 µM) | 1 (≈ 1.03 µM) | 0.13 (≈ 0.134 µM) | 2 (≈ 2.06 µM) | 0.5 (≈ 0.515 µM) | 0.25 (≈ 0.257 µM) | 0.03 (≈ 0.0309 µM)
